Structures are written as SMILES.

Test [1] has as its target Human LDHA (Homo sapiens (Human), UniProt P00338). As to the kind of experiment: human LDHA primary biochemical assay. The settings on record: biochemical LDHA inhibitory activity, assay of Example 1; activity level classes defined in nM. A digest of the protocol: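 Human LDHA at 2 nM with 0.06 mM NADH and 0.2 mM sodium pyruvate in 200 mM Tris HCl pH 7.4, 100 μM EDTA, 0.01% TWEEN-20 (final). NADH consumption coupled to resazurin/diaphorase (0.037 mM; 0.133 mg/mL); inhibition read by fluorescence.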

The subject of test [2] is MiaPaCa2 cells. Briefly: cell-based HT lactate assay by colorimetric/fluorometric detection (cellular inhibition of lactate production). As to conditions: Homo sapiens, MIA PaCa-2, assay of Example 6. The method in brief:
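Miniaturised colorimetric/fluorometric lactate kit assay, about 3.5 h total, measuring cellular lactate production. MiaPaCa2 seeded at 500 cells/well, a density chosen so lactate falls near 90% of the standard curve range.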

As for `NS(=O)(=O)c1ccc(Cc2c(-c3cccc(-c4ccc(Cl)c(F)c4)c3)nn(-c3nc(C(=O)O)cs3)c2CC2CC2)cc1F` [Compound 164, 2-(3-(4′-chloro-3′-fluoro-[1,1′-biphenyl]-3-yl)-5-(cyclopropylmethyl)-4-(3-fluoro-4-sulfamoylbenzyl)-1H-pyrazol-1-yl)thiazole-4-carboxylic acid], the results for the IC50 in test [1] and in test [2] were below 100 nM and below 1000 nM, respectively.
Taken in the same sequence, the figures for `COc1ccc(-c2cccc(-c3nn(-c4nc(C(=O)O)cs4)c(CC4CC4)c3Cc3ccc(S(N)(=O)=O)c(F)c3)c2)cc1C` [Compound 165, 2-(5-(cyclopropylmethyl)-4-(3-fluoro-4-sulfamoylbenzyl)-3-(4′-methoxy-3′-methyl-[1,1′-biphenyl]-3-yl)-1H-pyrazol-1-yl) thiazole-4-carboxylic acid] were below 100 nM and below 1000 nM.
Taken in the same sequence, the figures for `NS(=O)(=O)c1ccc(Cc2c(-c3cccc(-c4ccc(Cl)cc4)c3)nn(-c3nc(C(=O)O)cs3)c2CC2CC2)cc1F` [Compound 166, 2-(3-(4′-chloro-[1,1′-biphenyl]-3-yl)-5-(cyclopropylmethyl)-4-(3-fluoro-4-sulfamoylbenzyl)-1H-pyrazol-1-yl)thiazole-4-carboxylic acid] were below 100 nM and below 1000 nM.
For `Cc1ccc(-c2cccc(-c3nn(-c4nc(C(=O)O)cs4)c(CC4CC4)c3Cc3ccc(S(N)(=O)=O)c(F)c3)c2)cc1F` [Compound 167, 2-(5-(cyclopropylmethyl)-3-(3′-fluoro-4′-methyl-[1,1′-biphenyl]-3-yl)-4-(3-fluoro-4-sulfamoylbenzyl)-1H-pyrazol-1-yl)thiazole-4-carboxylic acid] the same measures were below 100 nM and below 1000 nM.
As for `CC(C)(C)c1ccc(-c2cccc(-c3nn(-c4nc(C(=O)O)cs4)c(CC4CC4)c3Cc3ccc(S(N)(=O)=O)c(F)c3)c2)cc1` [Compound 168, 2-(3-(4′-(tert-butyl)-[1,1′-biphenyl]-3-yl)-5-(cyclopropylmethyl)-4-(3-fluoro-4-sulfamoylbenzyl)-1H-pyrazol-1-yl)thiazole-4-carboxylic acid], the IC50 in test [1] was 100 to 1000 nM; in test [2], below 1000 nM.
For `CC(C)c1ccc(-c2cccc(-c3nn(-c4nc(C(=O)O)cs4)c(CC4CC4)c3Cc3ccc(S(N)(=O)=O)c(F)c3)c2)cc1` [Compound 169, 2-(5-(cyclopropylmethyl)-4-(3-fluoro-4-sulfamoylbenzyl)-3-(4′-isopropyl-[1,1′-biphenyl]-3-yl)-1H-pyrazol-1-yl)thiazole-4-carboxylic acid] the same measures were below 100 nM and below 1000 nM.
For `CC(C)c1cccc(-c2cccc(-c3nn(-c4nc(C(=O)O)cs4)c(CC4CC4)c3Cc3ccc(S(N)(=O)=O)c(F)c3)c2)c1` [Compound 173, 2-(5-(cyclopropylmethyl)-4-(3-fluoro-4-sulfamoylbenzyl)-3-(3′-isopropyl-[1,1′-biphenyl]-3-yl)-1H-pyrazol-1-yl)thiazole-4-carboxylic acid] the same measures were below 100 nM and above 57000 nM.
For `NS(=O)(=O)c1ccc(Cc2c(-c3cccc(-c4ccc5c(c4)CCCC5)c3)nn(-c3nc(C(=O)O)cs3)c2CC2CC2)cc1F` [Compound 174, 2-(5-(cyclopropylmethyl)-4-(3-fluoro-4-sulfamoylbenzyl)-3-(3-(5,6,7,8-tetrahydronaphthalen-2-yl)phenyl)-1H-pyrazol-1-yl)thiazole-4-carboxylic acid], the half-inhibitory concentration (IC50) in test [1] is 100 to 1000 nM; in test [2] it was above 57000 nM.
For `NS(=O)(=O)c1ccc(Cc2c(-c3cccc(-c4cccc(Cl)c4)c3)nn(-c3nc(C(=O)O)cs3)c2CC2CC2)cc1F` [Compound 175, 2-(3-(3′-chloro-[1,1′-biphenyl]-3-yl)-5-(cyclopropylmethyl)-4-(3-fluoro-4-sulfamoylbenzyl)-1H-pyrazol-1-yl)thiazole-4-carboxylic acid] the same measures were below 100 nM and above 57000 nM.
Taken in the same sequence, the figures for `N#Cc1ccc(-c2cccc(-c3nn(-c4nc(C(=O)O)cs4)c(CC4CC4)c3Cc3ccc(S(N)(=O)=O)c(F)c3)c2)cc1` [Compound 176, 2-(3-(4′-cyano-[1,1′-biphenyl]-3-yl)-5-(cyclopropylmethyl)-4-(3-fluoro-4-sulfamoylbenzyl)-1H-pyrazol-1-yl)thiazole-4-carboxylic acid] were below 100 nM and above 57000 nM.
For `NS(=O)(=O)c1ccc(Cc2c(-c3cccc(-c4cc(F)cc(F)c4)c3)nn(-c3nc(C(=O)O)cs3)c2CC2CC2)cc1F` [Compound 177, 2-(5-(cyclopropylmethyl)-3-(3′,5′-difluoro-[1,1′-biphenyl]-3-yl)-4-(3-fluoro-4-sulfamoylbenzyl)-1H-pyrazol-1-yl)thiazole-4-carboxylic acid] the same measures were below 100 nM and above 57000 nM.
Consider `CN(C)c1ccc(-c2cccc(-c3nn(-c4nc(C(=O)O)cs4)c(CC4CC4)c3Cc3ccc(S(N)(=O)=O)c(F)c3)c2)cc1` [Compound 178, 2-(5-(cyclopropylmethyl)-3-(4′-(dimethylamino)-[1,1′-biphenyl]-3-yl)-4-(3-fluoro-4-sulfamoylbenzyl)-1H-pyrazol-1-yl)thiazole-4-carboxylic acid], for which the half-inhibitory concentration (IC50) in test [1] is below 100 nM; in test [2], above 57000 nM.
Taken in the same sequence, the figures for `Cc1ccc(C#Cc2cccc(-c3nn(-c4nc(C(=O)NC#N)cs4)c(CC4CC4)c3Cc3ccc(S(N)(=O)=O)c(F)c3)c2)s1` [Compound 179, N-cyano-2-(5-(cyclopropylmethyl)-4-(3-fluoro-4-sulfamoylbenzyl)-3-(3-((5-methylthiophen-2-yl)ethynyl)phenyl)-1H-pyrazol-1-yl)thiazole-4-carboxamide] were 1000 to 57000 nM and above 57000 nM.

As a reminder, the IC50 is the concentration at which inhibition is half-maximal.

Values taken from US10954228B2 (NATIONAL INSTITUTES OF HEALTH, UNITED STATES DEPARTMENT OF …, priority 2016, dated 2021).
